Experimental data published in patent US20200237711A1, “Compositions for Treating and/or Preventing Cancer” (Boston Biomedical, Inc., priority 2017, published 2020).

Columns and labels:
H460 cells [1] = assay: Cytotoxic effect (cell survival rate, Prest Blue), H460; assay type: cell-based, human; settings: single agent treatment with 1.3 μmol/L, 6 hours (FIG. 12)
Protocol: (§1) A549 cells or H460 cells were seeded onto a 96-well culture plate (Corning) at 2×10^4/well, and then cultured at 37° C. under 5% carbon dioxide atmosphere in an incubator for 48 hours. […] After which, they were cultured in the presence or absence of a test compound (30 μmol/L of flufenamic acid, 100 μmol/L of flufenamic acid, or 100 μmol/L of mefenamic acid as a final concentration) for 6 hours, Prest Blue (Life Technologies) was added, and then incubated for 1 to 2 hours. After the incubation, absorbance at 570 nm was measured to evaluate the cytotoxicity. Absorbance of a well to which a cell had not been added (Ablank) is defined as the background, the cell survival rate was calculated using the following formula to divide a value obtained by multiplying 100 by a value obtained by subtracting the background absorbance from the absorbance of each well (Asample), by a value obtained by subtracting Ablank from the value (Acontrol) of a well in which a cell with no treatment with 2-acetylnaphtho[2,3-b]furan-4,9-dione or a metabolic inhibitor was contained.
(§2) Cell survival rate (%)=(Asample−Ablank)×100/(Acontrol−Ablank)

A549 cells [2] = assay: Cytotoxic effect (cell survival rate, Prest Blue), A549; assay type: cell-based, human; settings: single agent treatment with 1.3 μmol/L, 6 hours (FIG. 12)
Protocol: as §1, §2

[3] = Metabolism measurement of 2-acetylnaphtho[2,3-b]furan-4,9-dione in human liver cytosol fractions; assay type: in vitro ADME; settings: [14C]-labeled compound 0.5 μmol/L, human liver cytosol 0.1 mg/mL, 37° C. (FIG. 7)
Protocol: A reaction solution obtained by dissolving a human liver cytosol (0.1 mg/mL) and NADPH (1 mmol/L) in a phosphate buffer solution was prepared. Into the reaction solution, [^14C]-labeled labeled 2-acetylnaphtho[2,3-b]furan-4,9-dione was added such that the dione concentration is 0.5 μmol/L, and thereby the reaction was started. After incubation at 37° C. for a given time, 0.1% formic acid-containing acetonitrile was added to terminate the reaction, and the mixture was centrifuged. After the supernatant was evaporated to dryness under a stream nitrogen gas, re-dissolving solvent [10 mmol/L ammonium acetate:acetonitrile, 9:1 (v/v)] was used to re-dissolve it, and then Radio-HPLC was used to measure radioactivity.

[4] = test system: metabolism of 2-acetylnaphtho[2,3-b]furan-4,9-dione in human liver cytosol; assay: Screening for an inhibitor of a metabolic enzyme (human liver cytosol, LC-MS/MS); assay type: biochemical; settings: test drug 10 μmol/L, substrate 0.5 μmol/L, 37° C., 5 minutes (FIG. 9)
Protocol: To a reaction solution obtained by dissolving a human liver cytosol (0.1 mg/mL) and NADPH (1 mmol/L) in a phosphate buffer solution, a test drug (10 μmol/L) was added. Then, 2-acetylnaphtho[2,3-b]furan-4,9-dione was added to be 0.5 μmol/L and thereby the reaction was started. After incubation at 37° C. for 5 minutes, 50 nmol/L phenytoin solution, which had been dissolved in 0.1% formic acid-containing acetonitrile, was added and the reaction was terminated. After centrifugation, the resulting supernatant was measured using LC-MS/MS to quantify the residual amount of 2-acetylnaphtho[2,3-b]furan-4,9-dione, and the inhibition intensity of the test drugs was evaluated by comparison with the control group.

A549 cells [5] = assay: Intracellular concentration of 2-acetylnaphtho[2,3-b]furan-4,9-dione with a metabolic inhibitor, A549; assay type: cell-based, human; settings: 1.0 μmol/L dione with 30 or 100 μmol/L inhibitor, 2 hours (FIG. 11)
Protocol: (§3) A549 cells or H460 cells were seeded onto a 96-well culture plate (made by Corning Inc.) at 2×10^4/well, and then cultured at 37° C. under 5% carbon dioxide atmosphere in an incubator for 48 hours. After which, they were cultured for 2 hours with 2-acetylnaphtho[2,3-b]furan-4,9-dione in a final concentration of 1.0 μmol/L and in the presence or absence of 30 μmol/L or 100 μmol/L of mefenamic acid or flufenamic acid, and then washed with PBS. After that, 80% methanol was added to each well to obtain a cell lysate. The cell lysate was analyzed using LC-MS/MS to determine the intracellular concentration of 2-acetylnaphtho[2,3-b]furan-4,9-dione.

H460 cells [6] = assay: Intracellular concentration of 2-acetylnaphtho[2,3-b]furan-4,9-dione with a metabolic inhibitor, H460; assay type: cell-based, human; settings: 1.0 μmol/L dione with 30 or 100 μmol/L inhibitor, 2 hours (FIG. 11)
Protocol: as §3

[7] = test system: metabolism of 2-acetylnaphtho[2,3-b]furan-4,9-dione in human liver cytosol (AKR and CR); assay: Identification of a metabolic enzyme of 2-acetylnaphtho[2,3-b]furan-4,9-dione (CR/AKR inhibitors in human liver cytosol); assay type: biochemical; settings: AKR inhibitor 1.0 μmol/L or 10 μmol/L, 5 minutes (FIG. 8)
Protocol: To a reaction solution obtained by dissolving a human liver cytosol (0.1 mg/mL) and NADPH (1 mmol/L) in a phosphate buffer solution, quercitrin (10 μmol/L or 100 μmol/L), which is a CR inhibitor, and phenolphthalein or medroxyprogesterone 17-acetate (1.0 μmol/L or 10 μmol/L), which is an AKR inhibitor, were added. Further, [^14C]-labeled 2-acetylnaphtho[2,3-b]furan-4,9-dione was added to the reaction solution such that the dione concentration is 0.5 μmol/L. After incubation at 37° C. for 5 minutes, Radio-HPLC was used to measure radioactivity.

[8] = Concentration in plasma and tumor by combination with mefenamic acid in tumor-bearing mice; assay type: in vivo, mouse; settings: oral single dose
Protocol: The following administration solution (1), (2) or (3) was orally administered to 7 week aged mice (BALB/cAnNCrlCrlj, female, Charles River Laboratories Japan, Inc.) in a single time.
(1) 100 mg/kg of 2-acetylnaphtho[2,3-b]furan-4,9-dione
(2) 100 mg/kg of 2-acetylnaphtho[2,3-b]furan-4,9-dione and 100 mg/kg of mefenamic acid
(3) 100 mg/kg of 2-acetylnaphtho[2,3-b]furan-4,9-dione and 300 mg/kg of mefenamic acid
The blood was collected 2, 6, and 16 hours after the administration, and the blood was centrifuged to give plasma. Methanol was added to the plasma such that the final concentration of methanol is 80%, and then it was centrifuged. Further, protein-removing treatment was carried out by filtering through a filter, and then 2-acetylnaphtho[2,3-b]furan-4,9-dione was detected and quantified using LC-MS/MS (API4000, AB SCIEX). Meanwhile, a tumor mass was collected at the same time as the blood collection, 2-acetylnaphtho[2,3-b]furan-4,9-dione in the tumor was detected and quantified.

A549 cells [9] = assay: Anti-tumor effect in A549 tumor-bearing mice (tumor volume); assay type: in vivo, mouse; settings: tumor volume (FIG. 15)
Protocol: A549 cells of 5×10^6 per individual were transplanted to a right belly part of a 5 week aged mouse (BALB/cAnNCrlCrlj, male, Charles River Laboratories Japan, Inc.). After one week, the following administration solution (1), (2), (3), (4) or (5) was orally administered in a single time. (1) 100 mg/kg of mefenamic acid (2) 30 mg/kg of 2-acetylnaphtho[2,3-b]furan-4,9-dione (3) 100 mg/kg of 2-acetylnaphtho[2,3-b]furan-4,9-dione (4) 30 mg/kg of 2-acetylnaphtho[2,3-b]furan-4,9-dione and 100 mg/kg of mefenamic acid (5) 100 mg/kg of 2-acetylnaphtho[2,3-b]furan-4,9-dione and 100 mg/kg of mefenamic acid According to a schedule in which an administration solution or an administration solution without an agent was continuously administered for five days and then medication was ceased for two days and continuous administration for five days was carried out again, it was orally administered one time a day. The major axis and the minor axis of a tumor mass were measured by vernier calipers at 2 to 5 day intervals, and the tumor volume was calculated by substituting them into the formula: (minor axis)^2×(major axis)/2.

[10] = Concentration in plasma by combination with sulindac in cancer-bearing mice; assay type: in vivo, mouse; settings: oral single dose, 100 mg/kg dione with 25 mg/kg sulindac, two hours after administration (FIG. 14)
Protocol: The following administration solution (1) or (2) was orally administered to 8 week aged mice (BALB/cAnNCrlCrlj, female, Charles River Laboratories Japan, Inc.) in a single time. […] Methanol was added to the plasma such that the final concentration of methanol is 80%, and then it was centrifuged.

Compound	inhibition of the metabolism of 2-acetylnaphtho[2,3-b]furan-4,9-dione (residual amount vs control) [4]	also measured
CC(=O)c1cc2c(o1)C(=O)c1ccccc1C2=O [2-acetylnaphtho[2,3-b]furan-4,9-dione]	–	cell survival rate (H460 cells [1]): ≥ 100%; cell survival rate (A549 cells [2]): ≥ 100%; metabolism in liver cytosol ([3]; NADPH 1 mmol/L): time-dependently metabolized; metabolite mainly produced in liver cytosol ([3]; NADPH): 2-(1-hydroxyethyl)naphtho[2,3-b]furan-4,9-dione (M1)
CC(=O)c1ccc(S(=O)(=O)NC(=O)NC2CCCCC2)cc1 [acetohexamide]	inhibited	–
CCc1oc2ccccc2c1C(=O)c1cc(Br)c(O)c(Br)c1 [benzbromarone]	inhibited	–
CN(C)CCCN1c2ccccc2Sc2ccc(Cl)cc21 [chlorpromazine]	inhibited	–
C[C@H]1C[C@H]2[C@@H]3CCC4=CC(=O)C=C[C@]4(C)[C@@]3(F)[C@@H](O)C[C@]2(C)[C@@]1(O)C(=O)CCl [clobetasol]	inhibited	–
CC1CC2C3CCC4=CC(=O)C=CC4(C)C3(F)C(=O)CC2(C)C1(O)C(=O)CCl (centres unmarked) [clobetasone]	inhibited	–
Nc1ccc(S(=O)(=O)c2ccc(N)cc2)cc1 [dapsone]	inhibited	–
C#C[C@]1(O)CC[C@H]2[C@@H]3CCc4cc(O)ccc4[C@H]3CC[C@@]21C [ethynyl estradiol]	inhibited	–
O=C(O)c1ccccc1Nc1cccc(C(F)(F)F)c1 [flufenamic acid]	inhibited	intracellular concentration of 2-acetylnaphtho[2,3-b]furan-4,9-dione in the presence of the metabolic inhibitor (A549 cells [5]): increased; intracellular concentration of 2-acetylnaphtho[2,3-b]furan-4,9-dione in the presence of the metabolic inhibitor (H460 cells [6]): increased
COc1ccc(Cl)cc1C(=O)NCCc1ccc(S(=O)(=O)NC(=O)NC2CCCCC2)cc1 [glibenclamide]	inhibited	–
CCC1=C(C)CN(C(=O)NCCc2ccc(S(=O)(=O)NC(=O)N[C@H]3CC[C@H](C)CC3)cc2)C1=O [glimepiride]	inhibited	–
CC(C(O)c1ccc(O)cc1)N1CCC(Cc2ccccc2)CC1 (centres unmarked) [ifenprodil]	inhibited	–
CC(=O)N1CCN(c2ccc(OCC3COC(Cn4ccnc4)(c4ccc(Cl)cc4Cl)O3)cc2)CC1 (centres unmarked) [ketoconazole]	inhibited	–
CCCCc1nc(Cl)c(CO)n1Cc1ccc(-c2ccccc2-c2nn[nH]n2)cc1 [losartan]	inhibited	–
Cc1ccc(Cl)c(Nc2ccccc2C(=O)O)c1Cl [meclofenamic acid]	inhibited	–
CC(=O)O[C@]1(C(C)=O)CC[C@H]2[C@@H]3C[C@H](C)C4=CC(=O)CC[C@]4(C)[C@H]3CC[C@@]21C [medroxyprogesterone 17-acetate]	–	inhibition of the metabolism of 2-acetylnaphtho[2,3-b]furan-4,9-dione [7]: more strongly inhibited than quercitrin
Cc1cccc(Nc2ccccc2C(=O)O)c1C [mefenamic acid]	inhibited	concentration of 2-acetylnaphtho[2,3-b]furan-4,9-dione in tumor, combination vs single agent group ([8]; 100 mg/kg dione with 300 mg/kg of mefenamic acid (FIG. 13)): higher; concentration of 2-acetylnaphtho[2,3-b]furan-4,9-dione in plasma, combination vs single agent administration ([8]; 100 mg/kg dione with 100 or 300 mg/kg mefenamic acid, 2, 6, 16 hours (FIG. 13)): higher; intracellular concentration of 2-acetylnaphtho[2,3-b]furan-4,9-dione in the presence of the metabolic inhibitor (A549 cells [5]): increased; intracellular concentration of 2-acetylnaphtho[2,3-b]furan-4,9-dione in the presence of the metabolic inhibitor (H460 cells [6]): increased; anti-tumor activity as a single agent (A549 cells [9]; 100 mg/kg oral once a day, 5 days on/2 off/5 on): no anti-tumor activity; anti-tumor activity of the combination with 2-acetylnaphtho[2,3-b]furan-4,9-dione vs the dione as a single agent (A549 cells [9]; 30 or 100 mg/kg dione and 100 mg/kg mefenamic acid oral once a day): significantly improved
O=C1OC(c2ccc(O)cc2)(c2ccc(O)cc2)c2ccccc21 [phenolphthalein]	–	inhibition of the metabolism of 2-acetylnaphtho[2,3-b]furan-4,9-dione [7]: more strongly inhibited than quercitrin
OCc1cc(C(O)CNCCCCCCOCCCCc2ccccc2)ccc1O (centres unmarked) [salmeterol]	inhibited	–
CC1=C(CC(=O)O)c2cc(F)ccc2/C1=C\c1ccc([S+](C)[O-])cc1 (centres unmarked) [sulindac]	inhibited	concentration of 2-acetylnaphtho[2,3-b]furan-4,9-dione in plasma, combination vs single agent administration [10]: higher
